Holding throughout (format): cell-based
Experiment [1] deals with T1, Human TRPA1 (hTRPA1) (Homo sapiens, UniProt O75762).
T1 construct: expressed in transfected cells
The experiment in a line: TRPA1 Activation Test 2: intracellular Ca2+ imaging assay 2-1 to 2-3, hTRPA1 stably expressing cell line. The following applies: test sample 30 μM. The procedure: (§1) DNAs encoding genes described in the following Table 2 were inserted into pcDNA 5/TO vector (Invitrogen) to prepare various expression vectors.
(§2) These expression vectors were transfected into T-REx™_293 cells (Invitrogen) by a conventional method using Lipofectamine LTX (Invitrogen). Then, various transfectants were cultured and cloned by a conventional method using Dulbecco's Modified Eagle Medium (DMEM, Nacalai Tesque Inc.), containing 10% fetal bovine serum (FBS, Cytiva), […] of hygromycin B, and 5 μg/mL of blasticidin S, as a drug selection medium to obtain a hTRPA1 stably expressing cell line, a hTRPV1 stably expressing cell line, and a hTRPM8 stably expressing cell line.
(§3) A hTRPA1 stably expressing cell line in which expression of hTRPA1 had been induced in advance by a conventional method was prepared in a 96 well clear bottom plate, and the hTRPA1 activating action of rhein (produced by Tokyo Chemical Industry Co., Ltd.) was tested. Specifically, after each well was washed with PBS, 50 μL of an assay buffer (Hanks' balanced salt solution containing no calcium ion or magnesium ion that contained 1 mM of CaCl2 dihydrate, 20 mM of HEPES, and 0.1% BSA) containing calcium fluorescent indicator Calbryte™ 520 AM (produced by AAT Bioquest) in a final concentration of 4 μM was added, followed by incubating at 33° C. for 45 minutes. After washing with the assay buffer, 100 μL of the assay buffer was added to each well. This plate was set to FlexStation 3 (Molecular Devices, LLC), and a fluorescence intensity (excitation wavelength 490 nm, fluorescence wavelength 525 nm) at 31° C. was measured every two seconds, and 30 seconds after the start of the measurement, 100 μL of an assay buffer containing a test sample (allyl isothiocyanate (AITC) of positive control or rhein) which was prepared to have a certain final concentration or DMSO was added. Then, a well in which an assay buffer containing ionomycin (having a final concentration of 10 μM after the addition) instead of the test samples was added was also prepared as a reference for fluorescence intensity.
(§4) The measurement was continued from the start of the measurement up to 120 seconds, and the TRPA1 activation ability of the test samples was calculated in accordance with the following formula.
(§5) Activation rate (%)=(Fmax[s]−F0)/(Fmax[i]−F0)×100 • Fmax[s]: The maximum value of the fluorescence intensity when the test sample or positive control was added • F0: The average value of the fluorescence intensity for 20 seconds after the start of the measurement (base line) • Fmax[i]: The maximum value of the fluorescence intensity when ionomycin was added
The TRPA1 activation ability of each test sample was measured in the same manner as in the above (2) except the test was conducted with A-967079 (1 μM), which is a TRPA1-specific antagonist, or without A-967079. In addition, intracellular Ca^2+ imaging assay was conducted in the same manner as in the above (2) except that a hTRPV1 stably expressing cell line, a hTRPM8 stably expressing cell line, or a Mock cell was used instead of the hTRPA1 stably expressing cell line. Note that capsaicin was used as positive control for the hTRPV1 stably expressing cell line, and icilin was used as positive control for the hTRPM8 stably expressing cell line.
A TRPA1 activation ability was measured in the same manner as in the above (2) by using, as a test sample, rhein or compounds described in the following Table 10, which had anthraquinone structures similar to rhein, at a concentration of 200 μM of the test sample.

For a further experiment, the system named is Mock cell. Description: TRPA1 Activation Test 2: intracellular Ca2+ imaging assay 2-2, Mock cell. Conditions: test sample 30 μM; Table 9. The procedure: as §3, §4
Activation rate (%)=(Fmax[s]−F0)/(Fmax[i]−F0)×100 • Fmax[s]: The maximum value of the fluorescence intensity when the test sample or positive control was added • F0: The average value of the fluorescence intensity for 20 seconds after the start of the measurement (base line) • Fmax[i]: The maximum value of the fluorescence intensity when ionomycin was added […]

For experiment [2], the target named is T1, Human TRPA1 (hTRPA1). Description: TRPA1 Activation Test 1: intracellular Ca2+ imaging assay 1-1 to 1-3, hTRPA1 stably expressing cell line. The following applies: test sample 30 μM; for TRPA1 activation rate, With antagonist: A-967079 1 μM. The procedure: as §1, §2
as §3, with “bottom plate (black),” for “bottom plate,”, “and a” for “and the”, “of the purified oxylipin or the R2 fraction (both were assumed to contain a compound having a molecular weight of 294) obtained in the above item 1” for “of rhein (produced by Tokyo Chemical Industry Co., Ltd.)”, “calcium ions” for “calcium ion”, “magnesium ions” for “magnesium ion”, “sample” for “sample (allyl isothiocyanate (AITC) of positive control or rhein)”
as §4
Activation rate (%)=(Fmax[s]−F0)/(Fmax[i]−F0)×100 • Fmax[s]: The maximum value of the fluorescence intensity when the test sample or the positive control was added • F0: The average value of the fluorescence intensity for 20 seconds after the start of the measurement (base line) • Fmax[i]: The maximum value of the fluorescence intensity when ionomycin was added
The TRPA1 activation ability was measured in the same manner as in the above (2) except that the R2 fraction or allyl isothiocyanate (AITC) was used as a test sample and the test was conducted with A-967079 (1 μM), which is a TRPA1-specific antagonist, or without A-967079. In addition, regarding the R2 fraction, the hTRPV1 stably expressing cell line or the hTRPM8 stably expressing cell line was used instead of the hTRPA1 stably expressing cell line to conduct the same test. Note that as positive controls, capsaicin was used for the hTRPV1 stably expressing cell line and icilin was used for the hTRPM8 stably expressing cell line.
The TRPA1 activation ability was measured in the same manner as in the above (2) except that each isolated compound or allyl isothiocyanate (AITC) was used as a test sample and the test was conducted with A-967079 (1 μM), which was a TRPA1-specific antagonist, or without A-967079.

Experiment [3] addresses T2, Human TRPV1 (hTRPV1) (Homo sapiens, UniProt Q8NER1).
T2 construct: expressed in transfected cells
Description: TRPA1 Activation Test 1: intracellular Ca2+ imaging assay 1-2, hTRPV1 stably expressing cell line. The following applies: test sample 1 μM; Table 5. The procedure: as §1, §2
After washing with the assay buffer, 100 μL of the assay buffer was added to each well. […] Then, a well in which an assay buffer containing ionomycin (having a final concentration of 10 μM after the addition) instead of the test samples was added was also prepared as a reference for fluorescence intensity.
as §4

Experiment [4] has as its target T2, Human TRPV1 (hTRPV1). Description: TRPA1 Activation Test 2: intracellular Ca2+ imaging assay 2-2, hTRPV1 stably expressing cell line. Conditions: test sample 1 μM; Table 9. The procedure: as §1, §2
as §3, with “This plate was set to FlexStation 3 (Molecular Devices, LLC), and a fluorescence intensity (excitation wavelength 490 nm, fluorescence wavelength 525 nm) at 31° C. was measured every two seconds, and 30 seconds after the start of the measurement, 100 μL of an assay buffer containing a test sample (allyl isothiocyanate (AITC) of positive control or rhein) which was prepared to have a certain final concentration or DMSO was added.” left out
as §4, §5
(§6) The TRPA1 activation ability of each test sample was measured in the same manner as in the above (2) except the test was conducted with A-967079 (1 μM), which is a TRPA1-specific antagonist, or without A-967079. In addition, intracellular Ca^2+ imaging assay was conducted in the same manner as in the above (2) except that a hTRPV1 stably expressing cell line, a hTRPM8 stably expressing cell line, or a Mock cell was used instead of the hTRPA1 stably expressing cell line. […]

The target in experiment [5] is T3, Human TRPM8 (hTRPM8) (Homo sapiens, UniProt Q7Z2W7).
T3 construct: expressed in transfected cells
T3 sequence (Q7Z2W7 whole entry): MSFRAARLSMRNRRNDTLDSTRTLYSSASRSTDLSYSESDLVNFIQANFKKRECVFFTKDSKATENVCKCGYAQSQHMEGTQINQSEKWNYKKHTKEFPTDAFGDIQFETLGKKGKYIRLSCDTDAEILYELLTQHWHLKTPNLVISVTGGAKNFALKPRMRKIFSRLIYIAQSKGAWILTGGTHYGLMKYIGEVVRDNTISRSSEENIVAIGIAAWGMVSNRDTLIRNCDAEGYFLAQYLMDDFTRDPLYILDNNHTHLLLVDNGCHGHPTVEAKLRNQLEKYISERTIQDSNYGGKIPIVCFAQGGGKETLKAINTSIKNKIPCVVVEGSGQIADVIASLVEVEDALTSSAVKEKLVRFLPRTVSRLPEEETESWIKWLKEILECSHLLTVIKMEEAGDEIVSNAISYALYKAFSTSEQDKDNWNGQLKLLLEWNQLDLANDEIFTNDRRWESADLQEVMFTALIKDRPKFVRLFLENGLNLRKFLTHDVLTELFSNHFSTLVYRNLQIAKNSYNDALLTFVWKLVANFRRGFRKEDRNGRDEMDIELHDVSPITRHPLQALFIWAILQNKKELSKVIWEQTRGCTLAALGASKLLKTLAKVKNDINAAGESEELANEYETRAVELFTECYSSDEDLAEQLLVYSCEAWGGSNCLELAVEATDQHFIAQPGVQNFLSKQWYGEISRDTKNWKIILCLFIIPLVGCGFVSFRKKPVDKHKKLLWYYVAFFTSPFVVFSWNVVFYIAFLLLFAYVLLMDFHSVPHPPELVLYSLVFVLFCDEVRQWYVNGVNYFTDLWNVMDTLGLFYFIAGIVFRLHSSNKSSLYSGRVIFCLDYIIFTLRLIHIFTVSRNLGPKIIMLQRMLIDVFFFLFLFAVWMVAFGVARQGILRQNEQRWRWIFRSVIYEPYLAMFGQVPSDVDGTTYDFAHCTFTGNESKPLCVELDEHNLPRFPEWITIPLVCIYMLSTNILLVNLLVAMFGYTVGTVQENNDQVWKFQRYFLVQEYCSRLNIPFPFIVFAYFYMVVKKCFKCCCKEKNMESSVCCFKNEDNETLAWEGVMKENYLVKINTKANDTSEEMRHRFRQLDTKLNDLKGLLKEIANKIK
Description: TRPA1 Activation Test 1: intracellular Ca2+ imaging assay 1-2, hTRPM8 stably expressing cell line. Conditions: test sample 5 μM; Table 5. The procedure:
as §1, §2
A hTRPA1 stably expressing cell line in which expression of hTRPA1 had been induced in advance by a conventional method was prepared in a 96 well clear bottom plate (black), and a hTRPA1 activating action of the purified oxylipin or the R2 fraction (both were assumed to contain a compound having a molecular weight of 294) obtained in the above item 1 was tested. […] Then, a well in which an assay buffer containing ionomycin (having a final concentration of 10 μM after the addition) instead of the test samples was added was also prepared as a reference for fluorescence intensity. […]

In experiment [6] the target is T3, Human TRPM8 (hTRPM8). The experiment in a line: TRPA1 Activation Test 2: intracellular Ca2+ imaging assay 2-2, hTRPM8 stably expressing cell line. The following applies: test sample 5 μM; Table 9. The procedure: as §1, §2
as §3, with “This plate was set to FlexStation 3 (Molecular Devices, LLC), and a fluorescence intensity (excitation wavelength 490 nm, fluorescence wavelength 525 nm) at 31° C. was measured every two seconds, and 30 seconds after the start of the measurement, 100 μL of an assay buffer containing a test sample (allyl isothiocyanate (AITC) of positive control or rhein) which was prepared to have a certain final concentration or DMSO was added.” left out
as §4, §5, §6

T1 sequence (O75762 whole entry): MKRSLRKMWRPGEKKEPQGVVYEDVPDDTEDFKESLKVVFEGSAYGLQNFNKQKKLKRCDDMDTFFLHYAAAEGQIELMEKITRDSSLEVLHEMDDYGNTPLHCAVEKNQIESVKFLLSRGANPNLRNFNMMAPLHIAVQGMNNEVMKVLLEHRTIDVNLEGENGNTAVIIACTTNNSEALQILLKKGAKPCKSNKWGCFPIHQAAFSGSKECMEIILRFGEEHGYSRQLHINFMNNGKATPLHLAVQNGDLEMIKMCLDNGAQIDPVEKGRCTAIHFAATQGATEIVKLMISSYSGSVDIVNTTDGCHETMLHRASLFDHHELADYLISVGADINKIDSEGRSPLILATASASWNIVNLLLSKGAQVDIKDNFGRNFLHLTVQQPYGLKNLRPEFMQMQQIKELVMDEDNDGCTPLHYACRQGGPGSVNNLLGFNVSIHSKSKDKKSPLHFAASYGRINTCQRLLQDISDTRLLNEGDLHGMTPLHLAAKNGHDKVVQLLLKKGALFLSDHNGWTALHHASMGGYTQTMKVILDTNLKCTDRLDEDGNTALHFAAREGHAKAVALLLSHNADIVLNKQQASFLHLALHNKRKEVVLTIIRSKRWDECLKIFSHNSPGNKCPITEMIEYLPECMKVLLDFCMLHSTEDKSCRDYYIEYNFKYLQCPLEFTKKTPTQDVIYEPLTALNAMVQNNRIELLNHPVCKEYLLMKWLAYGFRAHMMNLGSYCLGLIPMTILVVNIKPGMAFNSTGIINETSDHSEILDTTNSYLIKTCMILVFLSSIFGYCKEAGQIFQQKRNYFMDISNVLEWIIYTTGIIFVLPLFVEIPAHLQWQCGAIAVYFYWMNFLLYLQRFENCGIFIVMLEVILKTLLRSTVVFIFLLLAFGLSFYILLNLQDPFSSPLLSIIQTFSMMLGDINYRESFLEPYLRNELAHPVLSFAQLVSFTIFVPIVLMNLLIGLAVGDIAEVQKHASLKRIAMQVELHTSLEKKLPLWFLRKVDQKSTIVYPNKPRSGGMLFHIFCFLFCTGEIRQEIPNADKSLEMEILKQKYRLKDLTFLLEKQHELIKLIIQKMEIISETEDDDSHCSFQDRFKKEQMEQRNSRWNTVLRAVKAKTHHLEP
T2 sequence (Q8NER1 whole entry): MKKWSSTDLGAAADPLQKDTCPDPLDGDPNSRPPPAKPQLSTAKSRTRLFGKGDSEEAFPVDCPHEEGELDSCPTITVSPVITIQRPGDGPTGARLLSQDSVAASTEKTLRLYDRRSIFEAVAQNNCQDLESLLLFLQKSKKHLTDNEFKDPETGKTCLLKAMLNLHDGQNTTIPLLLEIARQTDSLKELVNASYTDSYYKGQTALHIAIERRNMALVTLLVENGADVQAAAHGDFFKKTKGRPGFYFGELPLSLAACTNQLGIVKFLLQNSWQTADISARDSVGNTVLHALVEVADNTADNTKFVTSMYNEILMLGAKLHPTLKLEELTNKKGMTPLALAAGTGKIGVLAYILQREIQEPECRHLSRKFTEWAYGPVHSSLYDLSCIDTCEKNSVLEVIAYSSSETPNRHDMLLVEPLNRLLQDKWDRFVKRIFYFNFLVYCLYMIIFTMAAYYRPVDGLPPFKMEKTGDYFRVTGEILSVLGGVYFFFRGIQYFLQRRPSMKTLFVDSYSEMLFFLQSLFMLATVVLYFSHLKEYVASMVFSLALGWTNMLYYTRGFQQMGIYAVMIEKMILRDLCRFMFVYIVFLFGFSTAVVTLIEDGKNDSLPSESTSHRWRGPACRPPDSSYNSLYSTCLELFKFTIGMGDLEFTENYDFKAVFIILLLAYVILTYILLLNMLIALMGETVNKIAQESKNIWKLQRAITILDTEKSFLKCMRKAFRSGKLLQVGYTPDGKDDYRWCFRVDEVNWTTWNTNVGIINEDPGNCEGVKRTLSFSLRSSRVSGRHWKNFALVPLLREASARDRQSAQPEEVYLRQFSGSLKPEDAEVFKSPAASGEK

For `C=CCN=C=S` [AITC, allyl isothiocyanate, reference compound], the “TRPA1 activation rate, With antagonist” value is given as 15.7 ± 7.81 % on Human TRPA1 (hTRPA1) [1] (A-967079 1 μM, Table 8); 0.811 ± 0.0386 % at Human TRPA1 (hTRPA1) [1] (A-967079, Table 11); 1.30 ± 0.639% on Human TRPA1 (hTRPA1) [2] (Table 4); 1.44 ± 0.163% at Human TRPA1 (hTRPA1) [2] (Table 6). This compound also gave a TRPA1 activation rate at Human TRPA1 (hTRPA1) [1] (Table 7) of 101 ± 3.66%. In addition, the “TRPA1 activation rate, Without antagonist” value was 104 ± 6.10% on Human TRPA1 (hTRPA1) [1] (Table 8), 115 ± 6.15% at Human TRPA1 (hTRPA1) [1] (Table 11), 160 ± 2.58% at Human TRPA1 (hTRPA1) [2] (Table 4) and 128 ± 2.99% on Human TRPA1 (hTRPA1) [2] (Table 6). Besides, the “Activation rate, Mock” value with Mock cell was 6.40 ± 0.143%.

Take `COc1cc(CNC(=O)CCCC/C=C/C(C)C)ccc1O` [Capsaicin, capsaicin, reference compound]: the TRPV1 activation rate at Human TRPV1 (hTRPV1) [3] is reported as 113 ± 1.16%; on Human TRPV1 (hTRPV1) [4], 96.3 ± 3.24%.

In the case of `O=C1NC(c2cccc([N+](=O)[O-])c2)=CCN1c1ccccc1O` [Icilin, icilin, reference compound], the TRPM8 activation rate was 79.8 ± 1.71% on Human TRPM8 (hTRPM8) [5] and 104 ± 2.19^ % on Human TRPM8 (hTRPM8) [6].

For the origin of these results see patent US20250009697A1, “COMPOSITION FOR INCREASING AMOUNT OF FOOD INGESTED AND/OR IMPROVING ANOREXIA, AND COMPOSITION FOR ACTIVATING TRANSIENT RECEPTOR POTENTIAL ANKYRIN 1” (HOUSE FOODS GROUP INC., priority 2021, published 2025).
